The values below come from patent US20230331739A1, “INDOLO HEPTAMYL OXIME ANALOG CRYSTAL AS PARP INHIBITOR AND METHOD FOR PREPARING SAME” (CHIA TAI TIANQING PHARMACEUTICAL GROUP CO., LTD., priority 2020, published 2023).

SMILES strings stand for the structures. Where only a bound is given, the exact number is not on record here.

In assay [1] the test system is human breast cancer MDA-MB-436 cell xenograft tumor. As to the kind of experiment: In vivo pharmacodynamic study in subcutaneous MDA-MB-436 xenograft tumor model. Also noted: species or system BALB/c nude mouse. Particulars: for Tumor volume (day 27): Mean ± SEM; for T/C / TGI: day 27. The source says:
Objective: To study the in vivo efficacy of the test compound in BALB/c nude mouse model with subcutaneous human breast cancer MDA-MB-436 cell xenograft tumor.
Materials: Age and body weight: female BALB/c nude mice, aged 6-8 weeks, 18-22 g. The study started after 3-7 days of adaptive feeding. The animal information card of each cage was labeled with the following information about the animals: number, sex, strain, receipt date, regime, study number, group and start of treatment. All the cages, padding and drinking water were sterilized before use. The cages, feed and drinking water were refreshed twice a week. The animals were identified with ear tags. Test samples: Nirapariband and compound 1. All the test samples were prepared with 10% DMSO+90% (20% HP-β-CD) as vehicle, and the blank control group was administered with the vehicle alone.
1. Cell culturing: Human breast cancer MDA-MB-436 cells (ATCC, Manassas, VA, catalog No.: HTB-130) were cultured in an RPMI-1640 culture medium containing 10% fetal bovine serum and 1% Anti-anti through in vitro monolayer culture in an incubator at 37° C./5% CO2. The cells were digested with trypsin-EDTA twice a week for passaging as per conventional practice. At a cell saturation of 80%-90% and a required number, the cells were collected, counted and grafted.
2. Tumor cell grafting (tumor grafting): 0.2 mL (1×10^7 cells) of MDA-MB-436 cells (along with matrigel in a volume ratio of 1:1) was subcutaneously grafting on the right back of each mouse, and the mice were randomly divided into groups for administration after the mean tumor volume was approximately 318 mm^3.
3. Daily observation of animals: the animals were monitored daily for health and death, and routine examinations include observation of the effect on tumor growth and the therapy on the daily performance of the animals, such as behavioral activities, food and water intake, change in body weight, appearance, or other abnormal conditions.
4. Tumor measurement and experimental indexes: the experimental indexes were to investigate whether the tumor growth was inhibited or delayed or the tumor was cured. Tumor diameters were measured twice weekly using a vernier caliper. The tumor volume was calculated using the following formula: V=0.5 a×b^2, where a and b represent the long diameter and short diameter of the tumor, respectively. The anti-tumor efficacy of the compound was evaluated by TGI (%) or relative tumor proliferation rate T/C (%). TGI (%) refers to the tumor growth inhibition. Calculation of TGI (%): TGI (%)=[(1−(mean tumor volume at the end of administration of a treatment group−mean tumor volume at the start of administration of the treatment group))/(mean tumor volume at the end of treatment of the solvent control group−mean tumor volume at the start of treatment of the solvent control group)]×100%. The calculation formula for relative tumor proliferation rate T/C (%) was as follows: T/C (%)=TRTV/CRTV×100% (TRTV: RTV of treatment group; CRTV: RTV of negative control group). Relative tumor volume (RTV) was calculated based on the results of tumor measurement. The calculation formula was: RTV=Vt/V0, where V0 was the mean tumor volume measured at the time of grouping and administration (i.e., do), Vt was the mean tumor volume at a certain measurement, and the data of TRTV and CRTV were obtained on the same day.
5. Statistical analysis: including mean and standard error of mean (SEM) of tumor volume at each time point in each group. […] The experimental data were analyzed using one-way ANOVA and Games-Howell method. All the data were analyzed using SPSS 17.0. p<0.05 was defined as significance.

The test system of assay [2] is MDA-MB-231 cells with wild-type BRCA. The assay can be described thus: Anti-proliferation study on MDA-MB-231 cells (CellTiter-Glo). Particulars: Homo sapiens, MDA-MB-231, 72 h; 3 days incubation. The assay is classed as cell-based. The protocol: Materials: test compounds; R DMEM medium; fetal bovine serum; penicillin/streptomycin antibiotic; MDA-MB-231 cells; Envision Multimode Plate Reader.
MDA-MB-231 cells were seeded in a white 96-well plate by adding 80 μL of cell suspension (containing 5000 MDA-MB-231 cells) to each well. The cell plate was incubated in a CO2 incubator overnight.
Eight concentrations were set for each compound. The test compounds were serially 3-fold diluted to the 8th concentration with a multichannel pipette, i.e., from 2 mM to 920 nM, in duplicate. 78 μL of medium was added to an intermediate plate, and the serially diluted compound was transferred to the intermediate plate at 2 μL per well. After being mixed well, the mixture was transferred to the cell plate at 20 μL per well. […] Another cell plate was provided for reading signal values on the day of compound addition and these signal values were used as Max values in data analysis. Promega CellTiter-Glo was added to the cell plate at 25 μL per well and the luminescence signals were stabilized by incubation for 10 min at room temperature. Readings were taken using a PerkinElmer Envision Multimode Plate Reader.
Promega CellTiter-Glo was added to the cell plate at 25 μL per well and the luminescence signals were stabilized by incubation for 10 min at room temperature. Readings were taken using a PerkinElmer Envision Multimode Plate Reader. […]
Background: In ATP-based viability assays light output follows the ATP content of the culture.

On to `C[C@]1(c2ccc(-c3[nH]c4cc(F)cc5c4c3CONC5=O)cc2)CCCN1` [Compound 1], for which, in assay [1] (12.5 mg/kg PO QD × 28 days), the “Tumor volume (day 27)” value is recorded as 377 ± 149 mm^3, the T/C is given as 23.79% and the TGI is 95.34%. For the same molecule, in assay [1] (25 mg/kg PO QD × 28 days), the “Tumor volume (day 27)” value worked out at 132 ± 32 mm^3, the T/C is 8.31% and the TGI was determined as 114.69%. Further, in assay [1] (50 mg/kg PO QD × 28 days), the “Tumor volume (day 27)” value is recorded as 91 ± 14 mm^3, the T/C was 5.76% and the TGI turned out to be 117.86%. In assay [2], this molecule had an IC50 above 10 µM.

The T/C is the result in the treated group divided by that in the control group, in per cent. One may read the IC50 as the concentration needed to halve the response being measured. Low values mean greater potency, high ones weaker potency.
